Consider 19 compounds from patent publication US9062041B2 (Bayer Intellectual Property GmbH, priority 2011, dated 2015).

Common to all, as to format: cell-based
One assay has as its target T1, human PGD receptor (Homo sapiens, UniProt Q13258).
T1 sequence (Q13258 1-359): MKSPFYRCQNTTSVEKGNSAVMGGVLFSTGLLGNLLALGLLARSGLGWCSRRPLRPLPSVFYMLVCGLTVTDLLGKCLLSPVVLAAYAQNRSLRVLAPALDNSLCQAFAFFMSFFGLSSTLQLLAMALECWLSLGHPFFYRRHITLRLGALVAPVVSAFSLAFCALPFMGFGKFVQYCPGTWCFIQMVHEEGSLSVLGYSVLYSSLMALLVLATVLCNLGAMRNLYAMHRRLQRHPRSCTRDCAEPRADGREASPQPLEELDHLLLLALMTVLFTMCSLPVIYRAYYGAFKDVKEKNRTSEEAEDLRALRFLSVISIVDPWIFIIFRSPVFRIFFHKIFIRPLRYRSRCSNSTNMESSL
Nature of the assay: cAMP antagonism test on the human prostaglandin D receptor (HTRF cAMP detection). As to conditions: selectivity towards hDP, IC50 measured by cAMP antagonism test. The gist of the method:
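Cells pre-mixed with cAMP-d2 were preincubated with compound (0.8 nM–16.5 μM) for 20 min at RT, then stimulated with 3× PGD2 solution (6 nM, in PBS-IBMX) for 30 min at RT. After lysis (20 min), HTRF read at 665/620 nm; antagonism seen as rise in FRET ratio.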
(In general: TR-FRET usually uses a lanthanide donor and a delayed reading to cut background.)

Assay [1] deals with EP2 subtype of the human PGE2 receptor (Homo sapiens, UniProt P43116). As to the kind of experiment: cAMP antagonism test on the human EP2 receptor (HTRF cAMP detection). The following applies: hEP2 receptor, read-out: Antagonism hEP2 IC50. The gist of the method:
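Cells expressing human EP2 preincubated 20 min at RT with compound (0.8 nM–16.5 μM), then stimulated 60 min with PGE2 (3× solution 1.5 nM) in PBS-IBMX. After 20 min lysis, cAMP measured by competitive HTRF with cAMP-d2 and Eu cryptate anti-cAMP antibody (665/620 nm ratio).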

For assay [2], the target named is EP4 subtype of the human PGE2 receptor (Homo sapiens, UniProt P35408). Nature of the assay: cAMP antagonism test on the human EP4 receptor (HTRF cAMP detection). The following applies: selectivity towards hEP4, IC50 measured by cAMP antagonism test. The gist of the method:
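Cells expressing human EP4 preincubated 20 min at RT with compound (0.8 nM–16.5 μM), then stimulated with PGE2 (0.3 nM in 3× solution, with IBMX) 60 min at RT. After lysis, cAMP measured by HTRF competition (665/620 nm ratio); antagonism seen as rise in FRET signal.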

Chain of EP2 subtype of the human PGE2 receptor (P43116 whole entry): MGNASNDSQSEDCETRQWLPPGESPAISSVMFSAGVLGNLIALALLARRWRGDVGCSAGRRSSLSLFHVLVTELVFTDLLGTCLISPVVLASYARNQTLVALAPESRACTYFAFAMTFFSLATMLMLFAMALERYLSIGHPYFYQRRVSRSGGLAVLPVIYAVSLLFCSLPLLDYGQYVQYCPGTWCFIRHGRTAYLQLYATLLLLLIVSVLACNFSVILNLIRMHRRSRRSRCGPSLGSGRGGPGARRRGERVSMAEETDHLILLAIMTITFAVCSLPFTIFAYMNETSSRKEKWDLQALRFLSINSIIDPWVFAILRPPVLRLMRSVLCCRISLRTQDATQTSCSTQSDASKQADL
Chain of EP4 subtype of the human PGE2 receptor (P35408 whole entry): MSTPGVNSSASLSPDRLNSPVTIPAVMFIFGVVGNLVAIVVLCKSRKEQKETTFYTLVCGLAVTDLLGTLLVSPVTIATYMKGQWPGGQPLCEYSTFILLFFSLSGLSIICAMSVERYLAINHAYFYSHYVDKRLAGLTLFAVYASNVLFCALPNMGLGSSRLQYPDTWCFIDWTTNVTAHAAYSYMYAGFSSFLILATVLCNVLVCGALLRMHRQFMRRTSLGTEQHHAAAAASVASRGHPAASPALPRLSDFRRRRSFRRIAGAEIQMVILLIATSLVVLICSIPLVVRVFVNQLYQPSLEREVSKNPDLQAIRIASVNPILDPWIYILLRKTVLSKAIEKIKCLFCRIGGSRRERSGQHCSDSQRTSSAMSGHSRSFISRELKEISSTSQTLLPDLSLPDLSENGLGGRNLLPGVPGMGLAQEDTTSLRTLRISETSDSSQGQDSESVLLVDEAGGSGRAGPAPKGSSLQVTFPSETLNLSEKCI

Turning to `Cc1cc2nn(CC3CCN(C(=O)c4cccc(OC(F)(F)F)c4)CC3)cc2cc1C(=O)NCCN1CCOCC1` [Example 76, 6-methyl-N-(2-morpholinoethyl)-2-({1-[3-(trifluorometh-oxy)benzoyl]piperidin-4-yl}methyl)-2H-indazol-5-carboxamide], the “Selectivity hEP2/hDP” value at human PGD receptor was “xx (xx: 10-100)”. The IC50 in assay [1] came out at 179 nM. Also, the “Selectivity hEP2/hEP4” value in assay [2] was “xx (xx: 10-100)”.
`COCCNC(=O)c1ccc2nn(CC3CCN(C(=O)c4ccc(Oc5ncccn5)cc4)CC3)cc2c1C` [Example 342, N-(2-methoxyethyl)-4-methyl-2-({1-[4-(pyrimidin-2-yloxy)benzoyl]piperidin-4-yl}methyl)-2H-indazol-5-carboxamide]: the “Selectivity hEP2/hDP” value at human PGD receptor was “xxx (xxx > 100)”. The IC50 in assay [1] was 103 nM. Besides, the “Selectivity hEP2/hEP4” value in assay [2] is reported as “xxx (xxx > 100)”.
Consider `COCCNC(=O)c1ccc2nn(CC3CCN(C(=O)c4ccc(Oc5ccncc5)cc4)CC3)cc2c1C` [Example 51, N-(2-methoxyethyl)-4-methyl-2-({1-[4-(pyridyloxy)benzoyl]piperidin-4-yl}-methyl)-2H-indazol-5-carboxamide], for which, on human PGD receptor, the “Selectivity hEP2/hDP” value is reported as “xxx (xxx > 100)”. In assay [1], the IC50 came to 60 nM. In addition, the “Selectivity hEP2/hEP4” value in assay [2] is reported as “xxx (xxx > 100)”.
Take `CCNC(=O)c1ccc2nn(CC3CCN(C(=O)c4ccc(Cl)cc4)CC3)cc2c1C` [Example 242, 2-{[1-(4-chlorobenzoyl)piperidin-4-yl]methyl}-N-ethyl-4-methyl-2H-indazol-5-carboxamide]: the “Selectivity hEP2/hDP” value at human PGD receptor is listed as “xx (xx: 10-100)”. The IC50 in assay [1] was 305 nM. In addition, the “Selectivity hEP2/hEP4” value in assay [2] is “xx (xx: 10-100)”.
For `Cc1c(C(=O)NCCN2CCOCC2)ccc2nn(CC3CCN(C(=O)c4cccc(C(F)(F)F)c4)CC3)cc12` [Example 65, 4-methyl-N-(2-morpholinoethyl)-2-({1-[3-(trifluoromethyl)benzoyl]piperidin-4-yl}methyl)-2H-indazol-5-carboxamide], the “Selectivity hEP2/hDP” value on human PGD receptor is “x (x: 1-10)”. The IC50 in assay [1] is 2790 nM. Also, the “Selectivity hEP2/hEP4” value in assay [2] is reported as “x (x: 1-10)”.
Regarding `Cc1c(C(=O)NCCC(C)(C)O)ccc2nn(CC3CCN(C(=O)c4ccc(Cl)cc4)CC3)cc12` [Example 399, 2-{[1-(4-chlorobenzoyl)piperidin-4-yl]methyl}-N-(3-hydroxy-3-methylbutyl)-4-methyl-2H-indazol-5-carboxamide], on human PGD receptor, the “Selectivity hEP2/hDP” value is “xx (xx: 10-100)”. Moreover, the IC50 in assay [1] was determined as 593 nM. For the same compound, the “Selectivity hEP2/hEP4” value in assay [2] is “xx (xx: 10-100)”.
As to `Cc1c(C(=O)NCCN2CCOCC2)ccc2nn(CC3CCN(C(=O)c4cccc(S(F)(F)(F)(F)F)c4)CC3)cc12` [Example 64], the “Selectivity hEP2/hDP” value at human PGD receptor is reported as “x (x: 1-10)”. In assay [1], the IC50 worked out at 4130 nM. Also, in assay [2], the “Selectivity hEP2/hEP4” value was “x (x: 1-10)”.
As for `Cc1c(C(=O)NCCOC(F)(F)F)ccc2nn(CC3CCN(C(=O)c4ccc(Cl)cc4)CC3)cc12` [Example 107, 2-{[1-(4-chlorobenzoyl)piperidin-4-yl]methyl}-4-methyl-N-[2-(trifluoromethoxy)ethyl]-2H-indazol-5-carboxamide], the “Selectivity hEP2/hDP” value on human PGD receptor was “xxx (xxx > 100)”. Further, the IC50 in assay [1] was found to be 11.4 nM. Besides, the “Selectivity hEP2/hEP4” value in assay [2] was “xxx (xxx > 100)”.
Consider `COCCNC(=O)c1ccc2nn(C[C@@H]3CCN(C(=O)c4ccc(OC(F)(F)F)cc4)C3)cc2c1C` [Example 218, N-(2-methoxyethyl)-4-methyl-2-({(R)-1-[4-(trifluoromethoxy)benzoyl]-pyrrolidin-3-yl}methyl)-2H-indazol-5-carboxamide], for which the “Selectivity hEP2/hDP” value on human PGD receptor was “xxx (xxx > 100)”. Also, the IC50 in assay [1] was determined as 128 nM. For the same compound, the “Selectivity hEP2/hEP4” value in assay [2] is listed as “xxx (xxx > 100)”.
With `COCCNC(=O)c1ccc2nn(CC3CCN(C(=O)c4ccc(-n5cnnc5)cc4)CC3)cc2c1C` [Example 52, N-(2-methoxyethyl)-4-methyl-2-((1-[4-(4H-1,2,4-triazol-4-yl)benzoyl]piperidin-4-yl}methyl)-2H-indazol-5-carboxamide], at human PGD receptor, the “Selectivity hEP2/hDP” value is given as “xx (xx: 10-100)”. In addition, in assay [1], the IC50 was 830 nM. Moreover, in assay [2], the “Selectivity hEP2/hEP4” value was “xx (xx: 10-100)”.
Regarding `COc1ccc2c(c1)cc(C(=O)N1CC(Cn3cc4c(C)c(C(=O)NCC(F)(F)F)ccc4n3)C1)n2C` [Example 168, 2-({1-[(5-methoxy-1-methyl-1H-indol-2-yl)carbonyl]azetidin-3-yl}methyl)-4-methyl-N-(2,2,2-trifluoroethyl)-2H-indazol-5-carboxamide], the “Selectivity hEP2/hDP” value at human PGD receptor is given as “xxx (xxx > 100)”. In assay [1], the IC50 was 29.3 nM. For the same compound, the “Selectivity hEP2/hEP4” value in assay [2] is given as “xxx (xxx > 100)”.
Consider `COCCNC(=O)c1ccc2nn(CC3CCN(C(=O)c4ccc(Oc5ccc(C(F)(F)F)nc5)cc4)CC3)cc2c1C` [Example 349, N-(2-methoxyethyl)-4-methyl-2-{[1-(4-{[6-(trifluoromethyl)pyridin-3-yl]oxy}-benzoyl)piperidin-4-yl]methyl}-2H-indazol-5-carboxamide], for which, on human PGD receptor, the “Selectivity hEP2/hDP” value is reported as “xxx (xxx > 100)”. In addition, the IC50 in assay [1] stood at 4.82 nM. In assay [2], the “Selectivity hEP2/hEP4” value was “xxx (xxx > 100)”.
In the case of `Cc1c(C(=O)NCCOCC2CC2)ccc2nn(CC3CCN(C(=O)c4ccc(C(F)(F)F)cc4)CC3)cc12` [Example 87, N-[2-(cyclopropyl-methoxy)ethyl]-4-methyl-2-({l-[4-(tri-fluoromethyl)benzoyl]piperidin-4-yl}-methyl)-2H-indazol-5-carboxamide], the “Selectivity hEP2/hDP” value at human PGD receptor is “xxx (xxx > 100)”. In addition, the IC50 in assay [1] is 24 nM. In addition, the “Selectivity hEP2/hEP4” value in assay [2] is “xxx (xxx > 100)”.
Regarding `COCCNC(=O)c1ccc2nn(CC3CCN(C(=O)c4ccc(Oc5ccc(C#N)cc5)cc4)CC3)cc2c1C` [Example 330, 2-({1-[4-(4-cyanophenoxy)benzoyl]piperidin-4-yl}methyl)-N-(2-methoxyethyl)-4-methyl-2H-indazol-5-carboxamide], the “Selectivity hEP2/hDP” value at human PGD receptor is recorded as “xxx (xxx > 100)”. Besides, the IC50 in assay [1] turned out to be 9.53 nM. Moreover, the “Selectivity hEP2/hEP4” value in assay [2] is “xxx (xxx > 100)”.
On to `COCCNC(=O)c1ccc2nn(CC3CCN(C(=O)c4ccc(-c5cncc(C(F)(F)F)c5)cc4)CC3)cc2c1C` [Example 387, N-(2-methoxyethyl)-4-methyl-2-[(1-{4-[5-(trifluoromethyl)pyridin-3-yl]-benzoyl}piperidin-4-yl)methyl]-2H-indazol-5-carboxamide], for which, at human PGD receptor, the “Selectivity hEP2/hDP” value is recorded as “xxx (xxx > 100)”. The IC50 in assay [1] amounted to 13.2 nM. Also, the “Selectivity hEP2/hEP4” value in assay [2] is given as “xxx (xxx > 100)”.
Turning to `Cc1c(C(=O)NCCS(C)(=O)=O)ccc2nn(CC3CCN(C(=O)c4ccc(Oc5ccc(C(F)(F)F)cn5)cc4)CC3)cc12` [Example 396, N-(2-mesylethyl)-4-methyl-2-{[1-(4-{[5-(trifluoromethyl)pyridin-2-yl]oxy}-benzoyl)piperidin-4-yl]methyl}-2H-indazol-5-carboxamide], at human PGD receptor, the “Selectivity hEP2/hDP” value is reported as “xxx (xxx > 100)”. In addition, in assay [1], the IC50 came to 18 nM. Moreover, the “Selectivity hEP2/hEP4” value in assay [2] is reported as “xxx (xxx > 100)”.
In the case of `Cc1c(C(=O)NCC2CCCCO2)ccc2nn(CC3CCN(C(=O)c4ccc(Oc5ccc(C(F)(F)F)cc5)cc4)CC3)cc12` (single isomer, unassigned) [Example 417, (S or R)-4-methyl-N-(3,4,5,6-tetrahydro-2H-pyran-2-ylmethyl)-2-[(1-{4-[4-(trifluoromethyl)phenoxy]benzoyl}piperidin-4-yl)methyl]-2H-indazol-5-carboxamide], the “Selectivity hEP2/hDP” value at human PGD receptor is given as “xxx (xxx > 100)”. Besides, the IC50 in assay [1] came out at 9.75 nM. Besides, in assay [2], the “Selectivity hEP2/hEP4” value is on record as “xxx (xxx > 100)”.
On to `COCCNC(=O)c1ccc2nn(CC3CCN(C(=O)c4ccc(Oc5ccccc5F)cc4)CC3)cc2c1C` [Example 366, 2-({1-[4-(2-fluorophenoxy)benzoyl]piperidin-4-yl}methyl)-N-(2-methoxyethyl)-4-methyl-2H-indazol-5-carboxamide], for which the “Selectivity hEP2/hDP” value on human PGD receptor is reported as “xxx (xxx > 100)”. In addition, the IC50 in assay [1] is 18.9 nM. Moreover, in assay [2], the “Selectivity hEP2/hEP4” value is given as “xxx (xxx > 100)”.
For `Cc1c(C(=O)NCC2CC2)ccc2nn(CC3CCN(C(=O)c4ccc(Cl)cc4)CC3)cc12` [Example 402, 2-{[1-(4-chlorobenzoyl)piperidin-4-yl]methyl}-N-(cyclopropylmethyl)-4-methyl-2H-indazol-5-carboxamide], the “Selectivity hEP2/hDP” value on human PGD receptor is listed as “xxx (xxx > 100)”. The IC50 in assay [1] was 77.7 nM. Moreover, the “Selectivity hEP2/hEP4” value in assay [2] was “xxx (xxx > 100)”.

The term IC50 denotes the midpoint of a concentration-inhibition curve.
